Measured values: patent US11345681B1, “Inhibitors of fibroblast growth factor receptor kinases” (Kinnate Biopharma Inc., priority 2020, dated 2022)

Biological target: Wild type FGFR2 (Homo sapiens (Human), UniProt P21802)
Assay: FGFR2 kinase assay (fluorescence-based microfluidic mobility shift assay)
Format: biochemical
Settings: wild type FGFR2 0.06 nM, 100 μM ATP, 80 minutes at room temperature; class symbols

Sequence of Wild type FGFR2 (P21802 22-821): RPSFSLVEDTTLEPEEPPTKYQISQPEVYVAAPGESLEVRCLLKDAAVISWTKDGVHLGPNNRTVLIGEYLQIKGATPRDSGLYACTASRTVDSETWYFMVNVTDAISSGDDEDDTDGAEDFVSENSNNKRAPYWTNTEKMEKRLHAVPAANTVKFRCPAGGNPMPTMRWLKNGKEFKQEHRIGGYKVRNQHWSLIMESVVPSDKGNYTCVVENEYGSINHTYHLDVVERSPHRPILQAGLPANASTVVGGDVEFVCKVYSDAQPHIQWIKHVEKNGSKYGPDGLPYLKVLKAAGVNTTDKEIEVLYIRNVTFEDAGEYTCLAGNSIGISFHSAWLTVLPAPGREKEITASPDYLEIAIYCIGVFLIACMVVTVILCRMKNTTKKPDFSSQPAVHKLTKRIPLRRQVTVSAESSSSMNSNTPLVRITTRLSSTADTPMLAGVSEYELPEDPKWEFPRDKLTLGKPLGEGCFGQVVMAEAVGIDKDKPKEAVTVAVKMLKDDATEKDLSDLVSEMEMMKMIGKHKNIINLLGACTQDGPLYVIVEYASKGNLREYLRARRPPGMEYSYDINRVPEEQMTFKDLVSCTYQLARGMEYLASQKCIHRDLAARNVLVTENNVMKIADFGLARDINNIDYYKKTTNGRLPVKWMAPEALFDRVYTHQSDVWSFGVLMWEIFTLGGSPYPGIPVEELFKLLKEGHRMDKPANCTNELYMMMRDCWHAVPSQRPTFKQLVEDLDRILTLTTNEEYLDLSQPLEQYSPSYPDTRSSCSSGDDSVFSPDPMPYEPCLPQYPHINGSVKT

| Compound | IC50 [nM] |
| --- | --- |
| C=CC(=O)N1C[C@@H](n2nc(C#Cc3ccc4cnoc4c3)c(C(N)=O)c2NC)CC1COC (stereo in doubt) [Example 26, 1-((3S,5S)-1-acryloyl-5-(methoxymethyl)pyrrolidin-3-yl)-3-(benzo[d]isoxazol-6-ylethynyl)-5-(methylamino)-1H-pyrazole-4-carboxamide] | 100 to 1000 |
| C=CC(=O)N1C[C@@H](n2nc(C#Cc3c(F)cc4c(ncn4C4CC4)c3F)c(C(N)=O)c2NC)CC1C (stereo in doubt) [Example 159, 3-[2-(1-Cyclopropyl-4,6-difluoro-1,3-benzodiazol-5-yl)ethynyl]-1-[(3S,5R)-5-methyl-1-(prop-2-enoyl)pyrrolidin-3-yl]-5-(methylamino)pyrazole-4-carboxamide] | ≤ 100 |
| C=CC(=O)N1C[C@@H](n2nc(C#Cc3ccc4nn(C)cc4c3)c(C(N)=O)c2NC)C[C@@H]1COC [Example 9, 1-((3S,5R)-1-acryloyl-5-(methoxymethyl)pyrrolidin-3-yl)-3-((2-methyl-2H-indazol-5-yl)ethynyl)-5-(methylamino)-1H-pyrazole-4-carboxamide] | 100 to 1000 |
| C=CC(=O)N1C[C@@H](n2nc(C#Cc3c(F)cc4c(nc(C)n4C)c3F)c(C(N)=O)c2NC)C[C@@H]1COC [Example 18, 1-((3S,5R)-1-acryloyl-5-(methoxymethyl)pyrrolidin-3-yl)-3-((4,6-difluoro-1,2-dimethyl-1H-benzo[d]imidazol-5-yl)ethynyl)-5-(methylamino)-1H-pyrazole-4-carboxamide] | ≤ 100 |
| C=CC(=O)N1C[C@@H](n2nc(C#Cc3c(F)cc4c(cnn4C)c3F)c(C(N)=O)c2NC)C[C@@H]1COC [Example 19, 1-((3S,5R)-1-acryloyl-5-(methoxymethyl)pyrrolidin-3-yl)-3-((4,6-difluoro-1-methyl-1H-indazo1-5-yl)ethynyl)-5-(methylamino)-1H-1-pyrazole-4-carboxamide] | ≤ 100 |
| C=CC(=O)N1C[C@@H](n2nc(C#Cc3ccc4c(nc(C)n4C)c3F)c(C(N)=O)c2NC)C[C@@H]1COC [Example 20, 1-((3S,5R)-1-acryloyl-5-(pethoxymethyl)pyrrolidin-3-yl)-3-((4-fluoro-1,2-dimethyl-1H-benzo[d]imidazol-5-yl)ethynyl)-5-(methylamino)-1H-pyrazole-4-carboxamide] | ≤ 100 |
| C=CC(=O)N1C[C@@H](n2nc(C#Cc3ccc4c(nc(C)n4CC)c3F)c(C(N)=O)c2NC)C[C@@H]1COC [Example 21, 1-((3S,5R)-1-acryloyl-5-(methoxymethyl)pyrrolidin-3-yl)-3-((1-ethyl-4-fluoro-2-methyl-1H-benzo[d]imidazol-5-yl)ethynyl)-5-(methylamino)-1H-pyrazole-4-carboxamide] | ≤ 100 |
| C=CC(=O)N1C[C@@H](n2nc(C#Cc3cnc4c(c3)nc(C)n4CC)c(C(N)=O)c2NC)C[C@@H]1COC [Example 22, 1-((3S,5R)-1-acryloyl-5-(methoxymethyl)pyrrolidin-3-yl)-3-((3-ethyl-2-methyl-3H-imidazo[4,5-b]pyridin-6-yl)ethynyl)-5-(methylamino)-1H-pyrazole-4-carboxamide] | ≤ 100 |
| C=CC(=O)N1C[C@@H](n2nc(C#Cc3cnc4c(c3)ncn4C)c(C(N)=O)c2NC)C[C@@H]1COC [Example 23, 1-((3S,5R)-1-acryloyl-5-(methoxymethyl)pyrrolidin-3-yl)-3-((3-methyl-3H-imidazo[4,5-b]pyridin-6-yl)ethynyl)-5-(methylamino)-1H-pyrazole—4-carboxamide] | ≤ 100 |
| C=CC(=O)N1C[C@@H](n2nc(C#Cc3cc4nc(C)n(CC)c4cc3C#N)c(C(N)=O)c2NC)C[C@@H]1COC [Example 24, 1-((3S,5R)-1-acryloyl-5-(methoxymethyl)pyrrolidin-3-yl)-3-((6-cyano-1-ethyl-2-methyl-1H-benzo[d]imidazol-5-yl)ethynyl)-5-(methylamino)-1H-pyrazole-4-carboxamide] | 100 to 1000 |
| C=CC(=O)N1C[C@@H](n2nc(C#Cc3ccc4c(c3)nc(C3CC3)n4CC)c(C(N)=O)c2NC)C[C@@H]1COC [Example 25, 1-((3S,5R)-1-acryloyl-5-(methoxymethyl)pyrrolidin-3-yl)-3-((2-cyclopropyl-1-ethyl-1H-benzo[d]imidazol-5-yl)ethynyl)-5-(methylamino)-1H-pyrazole-4-carboxamide] | ≤ 100 |
| C=CC(=O)N1C[C@@H](n2nc(C#Cc3ccc4c(c3)nc(C(F)(F)F)n4CC)c(C(N)=O)c2NC)C[C@@H]1COC [Example 27, 1-((3S,5R)-1-acryloyl-5-(methoxymethyl)pyrrolidin-3-yl)-3-((1-ethyl-2-(trifluoromethyl)-1H-benzo[d]imidazol-5-yl)ethynyl)-5-(methylamino)-1H-pyrazole-4-carboxamide] | ≤ 100 |
| C=CC(=O)N1C[C@@H](n2nc(C#Cc3cc4nc(C)n(C)c4cc3F)c(C(N)=O)c2NC)C[C@@H]1COC [Example 28, 1-((3S,5R)-1-acryloyl-5-(methoxymethyl)pyrrolidin-3-yl)-3-((6-fluoro-1,2-dimethyl-1H-benzo[d]imidazol-5-yl)ethynyl)-5-(methylamino)-1H-pyrazole-4-carboxamide] | ≤ 100 |
| C=CC(=O)N1C[C@@H](n2nc(C#Cc3c(F)cc4c(ncn4CC)c3F)c(C(N)=O)c2NC)C[C@@H]1COC [Example 29, 1-((3S,5R)-1-acryloyl-5-(methoxymethyl)pyrrolidin-3-yl)-3-((1-ethyl-4,6-difluoro-1H-benzo[d]imidazol-5-yl)ethynyl)-5-(methylamino)-1H-pyrazole-4-carboxamide] | ≤ 100 |
| C=CC(=O)N1C[C@@H](n2nc(C#Cc3c(F)cc4c(ncn4C(F)F)c3F)c(C(N)=O)c2NC)C[C@@H]1COC [Example 30, 1-((3S,5R)-1-acryloyl-5-(methoxymethyl)pyrrolidin-3-yl)-3-((1-(difluoromethyl)-4,6-difluoro-1H-benzo[d]imidazol-5-yl)ethynyl)-5-(methylamino)-1H-pyrazole-4-carboxamide] | ≤ 100 |
| C=CC(=O)N1C[C@@H](n2nc(C#Cc3cc4ncn(CC)c4cc3F)c(C(N)=O)c2NC)C[C@@H]1COC [Example 32, 1-((3S,5R)-1-acryloyl-5-(methoxymethyl)pyrrolidin-3-yl)-3-((1-ethyl-6-fluoro-1H-benzo[d]imidazol-5-yl)ethynyl)-5-(methylamino)-1H-pyrazole-4-carboxamide] | ≤ 100 |

Results, then the molecule that gave them:

| IC50 [nM] | Compound |
| --- | --- |
| ≤ 100 | C=CC(=O)N1C[C@@H](n2nc(C#Cc3cc4ncn([C@@H]5CC5(F)F)c4cc3Cl)c(C(N)=O)c2NC)C[C@@H]1COC (single isomer, unassigned) [Example 279] |
| ≤ 100 | C=CC(=O)N1C[C@@H](n2nc(C#Cc3cc4ncn([C@H]5CC5(F)F)c4cc3Cl)c(C(N)=O)c2NC)C[C@@H]1COC (single isomer, unassigned) [Example 280] |
| ≤ 100 | C=CC(=O)N1C[C@@H](n2nc(C#Cc3cc4c(cc3Cl)ncn4[C@@H]3CC3(F)F)c(C(N)=O)c2NC)C[C@@H]1COC (single isomer, unassigned) [Example 288] |
| ≤ 100 | C=CC(=O)N1C[C@@H](n2nc(C#Cc3c(F)cc4c(ncn4CC(F)(F)F)c3F)c(C(N)=O)c2NC)CC1COC (stereo in doubt) [Example 34, 1-((3S,5S)-1-acryloyl-5-(methoxymethyl)pyrrolidin-3-yl)-3-((4,6-difluoro-1-(2,2,2-trifluoroethyl)-1H-benzo[d]imidazol-5-yl)ethynyl)-5-(methylamino)-1H-pyrazole-4-carboxamide] |
| ≤ 100 | C#CC(=O)N1CC[C@H](n2nc(C#Cc3cc4ncn(C5CC5)c4cc3F)c(C(N)=O)c2NC)C1 (stereo in doubt) [Example 188, 3-[2-(1-Cyclopropyl-6-fluoro-1,3-benzodiazol-5-yl)ethynyl]-5 (methylamino)-1-[1-(prop-2-ynoyl)pyrrolidin-3-yl]pyrazole-4-carboxamide] |
| ≤ 100 | C=CC(=O)N1CC[C@H](n2nc(C#Cc3ccc4nc(C)[nH]c4c3)c(C(N)=O)c2NC)C1 [Example 2, (S)-1-(1-acryloylpyrrolidin-3-yl)-3-((2-methyl-1H-benzo[d]imidazol-6-yl)ethynyl)-5-(methylamino)-1H-pyrazole-4-carboxamide] |
| ≤ 100 | C=CC(=O)N1C[C@@H](n2nc(C#Cc3ccc4c(c3)nc(C)n4CC)c(C(N)=O)c2NC)C[C@@H]1COC [Example 3, 3-[2-(1-ethyl-2-methyl-1,3-benzodiazol-5-yl)ethynyl]-1-[(3S,5R)-5-(methoxymethyl)-1-(prop-2-enoyl)pyrrolidin-3-yl]-5-(methylamino)pyrazole-4-carboxamide] |
| ≤ 100 | C=CC(=O)N1C[C@@H](n2nc(C#Cc3ccc4c(cnn4C)c3)c(C(N)=O)c2NC)C[C@@H]1COC [Example 8] |
| ≤ 100 | C=CC(=O)N1C[C@@H](n2nc(C#Cc3ccc4c(c3)nc(C(F)(F)F)n4C)c(C(N)=O)c2NC)C[C@@H]1COC [Example 10] |
| ≤ 100 | C=CC(=O)N1C[C@@H](n2nc(C#Cc3c(F)cc4c(ncn4C)c3F)c(C(N)=O)c2NC)C[C@@H]1COC [Example 11] |
| ≤ 100 | C=CC(=O)N1C[C@@H](n2nc(C#Cc3ccc4c(cnn4CC)c3)c(C(N)=O)c2NC)C[C@@H]1COC [Example 14] |
| ≤ 100 | C=CC(=O)N1C[C@@H](n2nc(C#Cc3ccc4nn(CC)cc4c3)c(C(N)=O)c2NC)C[C@@H]1COC [Example 15, 1-((3S,5R)-1-acryloyl-5-(methoxymethyl)pyrrolidin-3-yl)-3-((2-ethyl-2H-indazol-5-yl)ethynyl)-5-(methylamino)-1H-pyrazole-4-carboxamide] |
| ≤ 100 | C=CC(=O)N1C[C@@H](n2nc(C#Cc3c(F)cc4c(nc(C)n4CC)c3F)c(C(N)=O)c2NC)C[C@@H]1COC [Example 16, 1-((3S,5R)-1-acryloyl-5-(methoxymethyl)pyrrolidin-3-yl)-3-((1-ethyl-4,6-difluoro-2-methyl-1H-benzo[d]imidazol-5-yl)ethynyl)-5-(methylamino)-1H-pyrazole-4-carboxamide] |
| ≤ 100 | C=CC(=O)N1C[C@@H](n2nc(C#Cc3c(F)cc4[nH]c(C)nc4c3F)c(C(N)=O)c2NC)C[C@@H]1COC [Example 17] |

Same assay, conditions: wild type FGFR2 0.06 nM, 100 μM ATP, 80 minutes at room temperature; given as numeric bound

| IC50 [nM] | Compound |
| --- | --- |
| > 500 | C=CC(=O)N1C[C@@H](n2nc(C#Cc3cc4c(cc3Cl)ncn4[C@H]3CC3(F)F)c(C(N)=O)c2NC)C[C@@H]1COC (single isomer, unassigned) [Example 289] |
